Experimental data: patent US20250144078A1, “THIOSTREPTON-INSPIRED COMPOUNDS FOR TREATMENT OF CANCER AND PREPARATION THEREOF” (RS Oncology, llc, priority 2022, published 2025)
Counter-ions that a name gives are not always drawn.

Assays:
[1] = test system: HMESO mesothelioma cells; assay: Cell viability study (crystal violet) in HMESO mesothelioma cells; type: cell-based; conditions: Homo sapiens, 48 h incubation, read-out: IC50 (Concentration of drug required to kill 50% of cells)
Method: (§1) FIG. 1: Cell viability assay data in Malignant Mesothelioma (MM) cells (HMESO cell line) treated with compound (1)-HCl or (5)-HCl. N=2 technical and 2 biological replicates conducted by 2 different lab technicians. All compounds went into solution in 100% DMSO. (5)-HCl precipitated at concentrations of ˜20-80 μM when added to complete tissue culture media.
Cell Lines were plated in 96-well plates (Corning, Kennebunk, ME, USA) at a density of 2500 cells per well. The following day, cells were treated with test compounds diluted in complete media followed by incubation for 48 h. Post-incubation cells were washed with PBS (Corning Cellgro, Manassas, VA, USA), fixed with 3.0% formaldehyde (Fisher BioReagents, Fair Lawn, NJ, USA) in PBS, and stained for 30 min with 0.1% crystal violet (Acros Organics, Fair Lawn, NJ, USA) in water. Crystal violet stain was removed, and plates were washed with H2O and allowed to dry. To quantify cell viability, plates were imaged using the Lionheart Plate reader (BioTek Instruments, Winooski, VT, USA) and/or analyzed by absorbance at 540 nm (crystal violet dye dissolved in 100% methanol) using the Synergy HTX plate reader (BioTek Instruments, Winooski, VT, USA). […]

[2] = molecular target: T1, PRX3 (Homo sapiens, UniProt P30048); assay: PRX3 crosslinking study (western blot) in Malignant Mesothelioma cells; type: cell-based; conditions: H-MESO cells treated 24 hours, reducing SDS-PAGE, anti-PRX3 western blot; TS at 2.5 or 5 μM
T1 construct: endogenous in cells; host or cells: H-MESO (HMESO) malignant mesothelioma cell line
T1 sequence (P30048 62-256): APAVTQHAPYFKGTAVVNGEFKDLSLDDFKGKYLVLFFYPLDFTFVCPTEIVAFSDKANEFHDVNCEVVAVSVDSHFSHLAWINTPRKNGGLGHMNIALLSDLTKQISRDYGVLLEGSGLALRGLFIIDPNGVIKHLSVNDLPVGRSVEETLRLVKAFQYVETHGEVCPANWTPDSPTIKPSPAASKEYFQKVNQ
Method: Malignant Mesothelioma (MM) cells (H-MESO cell line) were plated into 6-well plates in complete tissue culture media. Cells were allowed to adhere for 24 hours before being treated with indicated concentrations of thiostrepton (TS), (1) or (5) (DMSO Stocks) for 24 hours. Cell lysates were generated using standard RIPA buffer, protein concentrations were determined using a Bradford Assay and 20 μg of total protein per sample were separated by reducing SDS-Polyacrylamide Gel Electrophoresis. Proteins were transferred to a PVDF membrane, blocked with 5% Bovine Serum Albumin (BSA) for 1 hour and incubated with PRX3 primary antibody overnight at 4° C. in 1× Tris Buffered Saline with Tween (TBST). Membranes were washed 3× with 1×TBST and incubated with horseradish peroxidase conjugated (HRP) secondary antibody for 1 hour at room temperature. Membranes were washed 3× in 1×TBST and HRP signal was developed using Enhanced Chemiluminescence and visualized on a GE digital imager.

[3] = Behaviour of compounds in DMSO and in complete tissue culture media; type: physicochemical; conditions: from DMSO stock
Method: as §1

| SMILES | IC50 [1] | covalent PRX3 crosslinking (PRX3-X-PRX3) [2] | concentrations at which compound precipitated when added to complete tissue culture media [3] |
| --- | --- | --- | --- |
| C=C(NC(=O)C(=C)NC(=O)c1csc(-c2ccc(N)cc2)n1)C(N)=O [(1)-HCl, N-(3-((3-amino-3-oxoprop-1-en-2-yl)amino)-3-oxoprop-1-en-2-yl)-2-(4-aminophenyl)thiazole-4-carboxamide hydrochloride] | 748 µM | No PRX3-X-PRX3 crosslinking was observed | – |
| C=C(NC(=O)C(=C)NC(=O)c1csc(C2=N[C@@H]3c4csc(n4)[C@H]4NC(=O)c5csc(n5)[C@H]([C@](C)(O)[C@@H](C)O)NC(=O)[C@H]5CSC(=N5)/C(=C/C)NC(=O)[C@H]([C@@H](C)O)NC(=O)c5csc(n5)[C@]3(CC2)NC(=O)[C@H](C)NC(=O)C(=C)NC(=O)[C@H](C)NC(=O)[C@H]([C@@H](C)CC)N[C@@H]2C=Cc3c([C@H](C)O)cc(nc3[C@H]2O)C(=O)O[C@@H]4C)n1)C(N)=O [TS, thiostrepton] | 1.01 µM | resulted in covalent PRX3 crosslinking | – |
| C=C(NC(=O)c1csc(-c2ccc(N)cc2)n1)C(=O)NC(=C)C(=O)OC [(5)-HCl, Methyl 2-(2-(2-(4-aminophenyl)thiazole-4-carboxamido)acrylamido)acrylate hydrochloride] | – | Similar, yet less robust, results | 20 to 80 µM |
